Counter-ions that a name gives are not always drawn.
What was measured:
[1] = system: patients with acute sore throat; test: Clinical trial of suckable tablets containing 20 mg ambroxol hydrochloride vs placebo in acute sore throat (Example 1); format: in vivo
Protocol: A multi-centred, prospective, placebo-controlled, randomised double-blind trial was carried out over two days' treatment with up to 6 suckable tablets containing ambroxol hydrochloride per day. Patients: 218 patients (97 men, 121 women) with an average age of 39.4±15 years (range from 17-81 years) were recruited; of these 215 patients were treated: 107 with 20 mg of ambroxol and 108 with placebo. 26 patients stopped the treatment early (13 in each treatment group). The intent-to-treat (ITT) population consisted of 208 patients (105 treated with ambroxol and 103 given the placebo); 196 patients formed the per-protocol (PP) population (97 with test substance and 99 with placebo). For the drug safety analysis, all the patients treated were studied. Treatments: Double-blind treatment with up to 6 suckable tablets per day, which either contained 20 mg of ambroxol or constituted a placebo (suckable tablet without the active substance, but with a marked flavour of peppermint similar to the test substance). End points: The average pain reduction, weighted for time, during the first 3 hours after administration of the first suckable tablet, standardised to the degree of initial pain (SPIDnorm); moreover, the assessment of effectiveness and tolerance by the patient at the end of each day of treatment.

[2] = system: patients with acute sore throat; test: Clinical trial of suckable tablets containing 20 or 30 mg ambroxol hydrochloride vs placebo in acute sore throat (Example 2); format: in vivo; conditions: for average SPIDnorm (±SD) after the first suckable tablet: time-weighted average pain reduction in first 3 hours, standardised to initial pain, placebo 0.38±0.28
Protocol: A multi-centred, prospective, placebo-controlled, randomised double-blind trial was carried out over three days' treatment with up to 6 suckable tablets containing ambroxol hydrochloride per day. Patients: 331 ambulant patients with acute uncomplicated sore throats of at least moderate severity but with no bacterial pharyngitis were investigated. Treatments: Double-blind treatment with up to 6 suckable tablets per day containing either 20 mg or 30 mg of ambroxol hydrochloride or constituting a placebo (suckable tablet without the active substance, but again with a marked flavour of peppermint similar to the test substance). End points: The average pain reduction, weighted for time, during the first 3 hours after administration of the first suckable tablet, standardised to the degree of initial pain (SPIDnorm); moreover, the assessment of effectiveness and tolerance by the patient at the end of each day of treatment.

[3] = up to 6 suckable tablets of 20 mg per day, two days, vs placebo

Compound: Nc1c(Br)cc(Br)cc1CN[C@H]1CC[C@H](O)CC1 [ambroxol hydrochloride, trans-4-[(2-amino-3,5-dibromobenzyl)amino]cyclohexano hydrochloride]
- average SPIDnorm (±SD) after the first suckable tablet ([1]; 20 mg suckable tablet, time-weighted average pain reduction in first 3 hours, standardised to initial pain, placebo 0.28±0.25): 0.39±0.27
- assessment of effectiveness by the patient at the end of each day of treatment [1, 3]: statistically significantly larger number of patients reported a higher degree of effectiveness
- tolerance [1, 3]: tolerated just as well as the placebo
- average SPIDnorm (±SD) after the first suckable tablet ([2]; 20 mg suckable tablet): 0.53±0.28
- average SPIDnorm (±SD) after the first suckable tablet ([2]; 30 mg suckable tablet): 0.50±0.30
- assessment of effectiveness by the patient at the end of each day of treatment ([2]; up to 6 suckable tablets of 20 or 30 mg per day, three days, vs placebo): statistically significantly larger number of patients reported a higher degree of effectiveness
- tolerance ([2]; up to 6 suckable tablets per day, three days, all dosages (20 and 30 mg), vs placebo): tolerated just as well as the placebo

— US20070224267A1, “Ambroxol for the treatment of painful conditions in the mouth and pharyngeal cavity” (priority 2002, published 2007)
